Twelve compounds from paper PMC9921564, “Novel Indole-Containing Hybrids Derived from Millepachine: Synthesis, Biological Evaluation and Antitumor Mechanism Study” (Molecules, 2023) can be followed below.

The subject of series [1] is A549 (human non-small-cell-lung cancer cell line). Put plainly: CCK-8 antiproliferative assay, A549. In kind it is cell-based. To be noted: 48 h, read-out: IC50, Mean ± SE, A549.
In series [2] the test system is Caski (human epithelial cervical cancer cell line). Briefly: CCK-8 antiproliferative assay, Caski. In kind it is cell-based. Particulars: Ca-Ski, 48 h, read-out: IC50, Mean ± SE, Caski.
Series [3] deals with HepG2 (human liver carcinoma cell line). Put plainly: CCK-8 antiproliferative assay, HepG2. In kind it is cell-based. To be noted: 48 h, read-out: IC50, Mean ± SE, HepG2.
Series [4] relates to C42B (human prostate cancer line). Briefly: CCK-8 antiproliferative assay, C42B. In kind it is cell-based. To be noted: 48 h, read-out: IC50, Mean ± SE, C42B.
In series [5] the test system is MCF-7 (human breast carcinoma cell line). Briefly: CCK-8 antiproliferative assay, MCF-7. In kind it is cell-based. Particulars: MCF7, 48 h, read-out: IC50, Mean ± SE, MCF-7.
Series [6] in a line: metabolic stability in human liver microsomes. In kind it is in vitro ADME. To be noted: for Remaining%: 37 °C, NADPH regenerating system. As to the method:
Metabolic stability is one of the most important properties in drug development. In this study, commercially available human liver microsomes were used to evaluate the metabolic stability of compound 14b. After incubation with human liver microsomes at 37 °C in vitro for an indicated time in a buffer solution containing a NADPH regenerating system, the residue of 14b was monitored by HPLC. CA-4 was used as the reference compound. […] As well known, a short half-life means a low bioavailability in vivo and is required for frequent administration with a high dose, which might result in drug accumulation and may produce related toxicity.

The test system of series [7] is five kinds of human cancer cell lines (A549, Caski, HepG2, C42B, MCF-7). Briefly: CCK-8 assay, panel of five human cancer cell lines. In kind it is cell-based. Particulars: 48 h, read-out: IC50 values, range over five human cancer cell lines.

As to `COc1cc(C(=O)/C=C/c2cn(C)c3ccccc23)cc2c1OC(C)(C)C=C2` [5b, (E)-1-(8-methoxy-2,2-dimethyl-2H-chromen-6-yl)-3-(1-methyl-1H-indol-3-yl)prop-2-en-1-one], the IC50 came out at 362 ± 17 nM in series [1]; 729 ± 33 nM in series [2]; 461 ± 17 nM in series [3]; 577 ± 21 nM in series [4]; 350 ± 11 nM in series [5].
For `COc1ccc(C(=O)c2cccc3c2ccn3C)c2c1C=CC(C)(C)O2` [11b, (5-methoxy-2,2-dimethyl-2H-chromen-8-yl)(1-methyl-1H-indol-4-yl)methanone], the IC50 amounted to 208 ± 9 nM in series [1]; 516 ± 12 nM in series [2]; 454 ± 21 nM in series [3]; 455 ± 15 nM in series [4]; 651 ± 24 nM in series [5].
Turning to `COc1ccc(C(=O)c2ccc3[nH]ccc3c2)c2c1C=CC(C)(C)O2` [14a, (1H-indol-5-yl)(5-methoxy-2,2-dimethyl-2H-chromen-8-yl)methanone], the half-inhibitory concentration (IC50) in series [1] came to 72 ± 4 nM; in series [2], 86 ± 9 nM; in series [3], 142 ± 14 nM; in series [4], 89 ± 21 nM; in series [5], 82 ± 11 nM.
With `COc1cc(C(=O)c2cccc3[nH]ccc23)cc2c1OC(C)(C)C=C2` [19a, (1H-indol-4-yl)(8-methoxy-2,2-dimethyl-2H-chromen-6-yl)methanone], the IC50 in series [1] was determined as 1320 ± 16 nM; in series [2], 2311 ± 19 nM; in series [3], 3098 ± 21 nM; in series [4] it was 2410 ± 42 nM; in series [5], 1775 ± 4 nM.
The corresponding values for `COc1cc(C(=O)c2cccc3c2ccn3C)cc2c1OC(C)(C)C=C2` [19b, (8-methoxy-2,2-dimethyl-2H-chromen-6-yl)(1-methyl-1H-indol-4-yl)methanone] are 642 ± 81 nM, 1100 ± 32 nM, 898 ± 9 nM, 1080 ± 34 nM and 1020 ± 15 nM.
The corresponding values for `COc1cc(C(=O)c2ccc3[nH]ccc3c2)cc2c1OC(C)(C)C=C2` [21a, (1H-indol-5-yl)(8-methoxy-2,2-dimethyl-2H-chromen-6-yl)methanone] are 105 ± 11 nM, 211 ± 12 nM, 441 ± 71 nM, 209 ± 20 nM and 121 ± 21 nM.
Take `COc1cc(C(=O)c2ccc3c(ccn3C)c2)cc2c1OC(C)(C)C=C2` [21b, (8-methoxy-2,2-dimethyl-2H-chromen-6-yl)(1-methyl-1H-indol-5-yl)methanone]: the IC50 in series [1] turned out to be 82 ± 10 nM; in series [2], 106 ± 12 nM; in series [3], 97 ± 31 nM; in series [4], 107 ± 6 nM; in series [5], 99 ± 31 nM.
On to `COc1ccc(/C=C\c2cc(OC)c(OC)c(OC)c2)cc1O` [CA-4, reference compound], for which the t1/2 in series [6] is on record as less than 60 min. Moreover, the Remaining% in series [6] (30 min) stood at 70.2%; in series [6] (60 min), 28.3%; in series [6] (90 min) it was 20.5%; in series [6] (120 min) it was 18.7%.
In the case of `COc1ccc(C(=O)c2ccc(OC)c3c2OC(C)(C)C=C3)cc1` [Compd. A, reference compound], the IC50 in series [1] is 226 ± 35 nM; in series [2], 892 ± 24 nM; in series [3] it was 758 ± 17 nM; in series [4] it was 526 ± 7 nM; in series [5], 456 ± 21 nM; in series [7], 226 to 892 nM.
In the case of `COc1ccc(/C=C/C(=O)c2ccc(OC)c3c2OC(C)(C)C=C3)cc1` [Millepachine], the concentration for half-maximal inhibition (IC50) was 2570 ± 131 nM in series [1]; 6710 ± 233 nM in series [2]; 3880 ± 244 nM in series [3]; 3180 ± 384 nM in series [4]; 4530 ± 338 nM in series [5]; 2570 to 6710 nM in series [7].
Turning to `COc1cc(C(=O)/C=C/c2c[nH]c3ccccc23)cc2c1OC(C)(C)C=C2` [compound 5a, (E)-3-(1H-indol-3-yl)-1-(8-methoxy-2,2-dimethyl-2H-chromen-6-yl)prop-2-en-1-one], the 50% inhibitory concentration (IC50) in series [1] came out at 812 ± 22 nM; in series [2], 1930 ± 35 nM; in series [3], 963 ± 32 nM; in series [4], 1380 ± 21 nM; in series [5], 1553 ± 14 nM.
Take `COc1ccc(C(=O)c2cccc3[nH]ccc23)c2c1C=CC(C)(C)O2` [compound 11a, (1H-indol-4-yl)(5-methoxy-2,2-dimethyl-2H-chromen-8-yl)methanone]: the IC50 turned out to be 631 ± 18 nM in series [1]; 832 ± 11 nM in series [2]; 998 ± 34 nM in series [3]; 911 ± 34 nM in series [4]; 816 ± 45 nM in series [5].
